Experimental findings from paper PMC6713218, “Hyaluronic acid-functionalized bilosomes for targeted delivery of tripterine to inflamed area with enhancive therapy on arthritis” (Drug Delivery, 2019) are described below.

The subject of one data set is RAW264.7 cells. Nature of the data set: Cellular uptake test (intracellular Tri by HPLC). It counts as cell-based, murine. To be noted: for Reduction in cellular uptake of HA@Tri-BLs: inhibitor or competitor added: free HA 25 μM, HUTCH-1 10 μg/mL, hypertonic sucrose 400 mM, chlorpromazine 25 μM, EIPA 50 μM, vs control without inhibitor. The protocol: The cellular uptake of Tri-loaded bilosomes were investigated in RAW264.7 cells, a murine macrophage line. The cells were cultured in a RPMI-1640 medium containing 10% FBS (Gibco, CA, USA) at 37 °C in 5% CO2. When the cells grew to 80 ∼ 90% confluence, they were eligible for the cellular uptake test. Tri solution (dissolve in 75% ethanol), Tri-BLs and HA@Tri-BLs were diluted to 10 μg/mL with the culture medium and introduced into the cell wells for coincubation. To elucidate the uptake mechanism of HA@Tri-BLs, the uptake of HA@Tri-BLs was specially measured in the presence of various cytosis inhibitors or competitor, including hypertonic sucrose (400 mM), chlorpromazine (25 μM), simvastatin (5 μM), genistein (200 μM), free HA (25 μM), HUTCH-1 (10 μg/mL), EIPA (50 μM) and Lantraculin A (2.5 μM) (Deng et al., [2017]). The intracellular drug concentration was determined using HPLC by lysing the cells with RIPA lysis buffer and corrected by the protein content with BCA protein assay kit.

The nature of data set [1]: Plasma pharmacokinetics in arthritic rats. Particulars: Sprague-Dawley, rat, iv, i.v. 10 mg/kg, mean ± SD. It is filed as in vivo. As for the experimental part: The pharmacokinetics and tissue distribution of free Tri, Tri-BLs and HA@Tri-BLs were studied in arthritic rats. Sprague–Dawley (SD) rats weighing 250 ± 20 g were used to establish the arthritic model. The rats were acclimatized for 20 days in a standard animal room and provided with food and water ad libitum. On the 21st day, the rats were received injection of Freund’s complete adjuvant (FCA) containing 10 mg/mL of Mycobacterium tuberculosis (Sigma-Aldrich) at the right foot (Jia and He, [2016]). […] The established arthritic rats were intravenously injected with Tri solution (dissolved in 75% ethanol solution and diluted with deionized water), Tri-BLs and HA@Tri-BLs via the jugular vein at a dose of 10 mg/kg. After administration, aliquots of blood (∼250 μL) were continuously sampled from the caudal vein into heparinized tubes at predetermined intervals.
Another three groups of arthritic rats were applied for biodistribution study to analyze the in vivo drug distribution of Tri solution, Tri-BLs and HA@Tri-BLs. At 0.5, 1, 2 and 4 h after injection, […] were sacrificed, and the heart, liver, spleen, lung, and kidney as well as the joint were excised or harvested. The drug in the blood and tissue samples was extracted twice with ethyl acetate from the prepared plasma and tissue homogenates (Zhang et al., [2014]). The extracted drug solution was then condensed and reconstituted in 50 μL of methanol for HPLC analysis with gossypol as an internal standard. The experimental protocols settled were reviewed and approved by the Animal Care and Use Committee of Chengdu University of Traditional Chinese Medicine.

A short description of data set [2]: Intra-articular pharmacokinetics and biodistribution in arthritic rats. It is filed as in vivo, Sprague–Dawley (SD) rats.
The nature of the next data set: Water solubility. It counts as physicochemical.

Consider `CCN(c1nc(N)c(C(=O)NC(=N)N)nc1Cl)C(C)C` [EIPA, ethylisopropyl amiloride], for which, in the data set on RAW264.7 cells, the “Reduction in cellular uptake of HA@Tri-BLs” value (“Reduction in cellular uptake” below) is “inhibited the cellular uptake of HA@Tri-BLs to different extents”.

What is called half-life is how long it takes for the measured level to halve. In general, clearance refers to the volume of plasma or blood freed of the substance per unit of time. The MRT is a mean duration of stay, worked out from the concentration-time curve. In the case of `CC1=C(O)C(=O)C=C2C1=CC=C1[C@@]2(C)CC[C@@]2(C)[C@@H]3C[C@](C)(C(=O)O)CC[C@]3(C)CC[C@]12C` [Tri solution, Tripterine], the “Cellular uptake of Tri (intracellular Tri content)” value in the data set on RAW264.7 cells (10 μg/mL, three incubation times) is “minimal uptake level”. Moreover, the AUC(0-inf) in data set [1] (n = 6) turned out to be 35900 ± 530 ng·h/mL; in data set [2] (Sprague-Dawley, rat, iv, arthritic rats, i.v. 10 mg/kg, joint, read-out: AUC0–∞ pertinent to the joints), 1470 ng·h/mL. The molecule further had a half-life in data set [1] (n = 6) of 6.15 ± 0.22 h. Moreover, the clearance in data set [1] (n = 6, read-out: CL (total drug clearance from plasma) (converted)) is 4.65 mL/min. Besides, the Cmax came to 22600 ± 710 ng/mL in data set [1] (n = 6, read-out: Cmax (maximum plasma concentration)) and 652 ± 146 ng/mL in data set [2] (Sprague-Dawley, rat, iv, arthritic rats, i.v. 10 mg/kg, joint, mean ± SD, n = 6). In addition, in data set [1] (n = 6, read-out: MRT (mean residence time)), the MRT came out at 7.07 ± 0.767 h. Besides, the Vd in data set [1] (n = 6, read-out: V (apparent volume of distribution)) turned out to be 1.97 ± 0.35 L. Moreover, in data set [2] (Sprague-Dawley, rat, iv, arthritic rats, i.v. 10 mg/kg, joint, mean ± SD, n = 6, read-out: AUC0−t in the joint), the AUC(0-t) came out at 1470 ± 402 ng·h/mL. Also, the “Biodistribution of Tri in organs” value in data set [2] (arthritic rats, 0.5, 1, 2 and 4 h after injection) was “high distribution in the organs of heart and kidney besides the plasma”. In “Water solubility”, the Water-solubility entry was “extremely poor water-solubility”.

In the case of `CN(C)CCCN1c2ccccc2Sc2ccc(Cl)cc21` [chlorpromazine, Chlorpromazine], the “Reduction in cellular uptake” value in the data set with RAW264.7 cells was “inhibited the cellular uptake of HA@Tri-BLs to different extents”.

For `OC[C@H]1O[C@@](CO)(O[C@H]2O[C@H](CO)[C@@H](O)[C@H](O)[C@H]2O)[C@@H](O)[C@@H]1O` [hypertonic sucrose, sucrose], the “Reduction in cellular uptake” value in the data set with RAW264.7 cells is recorded as “inhibited the cellular uptake of HA@Tri-BLs to different extents”.

Take hyaluronic acid [free HA]: the “Reduction in cellular uptake” value in the data set on RAW264.7 cells is reported as 47.5%.
